ChEMBL document CHEMBL1135132, “Synthesis of more potent analogues of the acetylcholinesterase inhibitor, huperzine B” (Bioorg Med Chem Lett, 2002)

molecular target: T1, Acetylcholinesterase (Bos taurus, UniProt P23795); assay: Inhibitory constant against fetal bovine serum (FBS) acetylcholinesterase
T1 sequence (P23795 whole entry): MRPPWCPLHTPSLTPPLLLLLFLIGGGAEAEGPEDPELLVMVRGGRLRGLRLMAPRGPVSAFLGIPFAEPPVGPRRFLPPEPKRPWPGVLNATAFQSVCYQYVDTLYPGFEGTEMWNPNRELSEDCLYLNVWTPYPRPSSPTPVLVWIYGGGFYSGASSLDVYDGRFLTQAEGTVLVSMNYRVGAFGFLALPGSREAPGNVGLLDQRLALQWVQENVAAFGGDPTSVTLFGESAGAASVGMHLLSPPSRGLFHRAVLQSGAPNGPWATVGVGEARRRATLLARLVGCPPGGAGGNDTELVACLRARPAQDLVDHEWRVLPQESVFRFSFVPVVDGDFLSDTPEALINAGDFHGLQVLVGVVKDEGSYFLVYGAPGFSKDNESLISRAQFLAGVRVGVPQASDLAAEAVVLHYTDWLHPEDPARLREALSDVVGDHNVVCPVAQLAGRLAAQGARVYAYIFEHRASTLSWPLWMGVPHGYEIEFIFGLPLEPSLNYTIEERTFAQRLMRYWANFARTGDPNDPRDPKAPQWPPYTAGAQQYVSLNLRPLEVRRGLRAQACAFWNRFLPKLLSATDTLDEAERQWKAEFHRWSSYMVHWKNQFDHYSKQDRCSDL

Compound	Ki
CC1=CC2Cc3[nH]c(=O)ccc3C3(C1)NCCC(C)=C23 (stereo not given)	2050 nM
CC1=CC2Cc3nc(O)ccc3C3(C1)NCC(C)=C23 (stereo not given)	220 nM
C/C=C1\[C@H]2C=C(C)C[C@]1(N)c1ccc(=O)[nH]c1C2 [HUPERZINE A]	24 nM
CC1=C[C@H]2Cc3[nH]c(=O)ccc3[C@]3(C1)NCCC[C@H]23 [HUPERZINE B]	794 nM
CCC1=C2C3C=C(C)CC2(NC1)c1ccc(O)nc1C3 (stereo not given)	400 nM
